The record followed here is ChEMBL document CHEMBL1201862, “PubChem BioAssay data set” (2004).

Experiment in all cases: growth of human tumour cells (NCI), 48 h
Experiment [1] has as its system OVCAR-8.
The test system of experiment [2] is Hs-578T.
Experiment [3] concerns OVCAR-4.
In experiment [4] the test system is BT-549.
Experiment [5] concerns SW-620.
In experiment [6] the test system is CCRF-CEM.
For experiment [7], the system named is SNB-75.
The subject of experiment [8] is HOP-92.
Experiment [9] relates to UACC-62.
Experiment [10] concerns SF-539.
In experiment [11] the test system is OVCAR-5.
Experiment [12] deals with PC-3.
The test system of experiment [13] is KM12.
Experiment [14] concerns MDA-MB-231.
In experiment [15] the test system is SF-295.
In experiment [16] the test system is A498.
The subject of experiment [17] is MCF7.
The test system of experiment [18] is IGROV-1.
The subject of experiment [19] is SK-MEL-28.

Structures are written as SMILES.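 Step 1: Grow cells in 96-well plates. Step 2: Expose to compound for 48 hours at 5 concentrations. Step 3: Interpolate endpoints linearly; if unreached, use highest concentration. Here, GI50 denotes the concentration required for 50% inhibition of growth.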 Calls of active or inactive are those of the source. Rule as the data show it: active = GI50 up to about 1.1 µM and inactive = higher. A value given as a limit tells only on which side of the number the result lay.

As to `COc1cc2c(/C=C3/C(=O)Nc4ccc(O)cc43)c(Cl)[nH]c2cc1C`, the GI50 in [1] is 0.281 µM (active); in experiment [2], 0.0989 µM (active); in [3] it was 0.562 µM (active); in [4], 0.139 µM (active); in experiment [5], 0.0955 µM (active); in experiment [6], 0.0462 µM (active). The GI50 in experiment [7] is 0.143 µM (active); in experiment [8], 15.9 µM (inactive); in experiment [9], 0.0499 µM (active); in experiment [10] it was 0.0447 µM (active); in experiment [11], 0.618 µM (active); in [12], 0.359 µM (active). The GI50 was 0.045 µM (active) in experiment [13]; 0.283 µM (active) in [14]; 0.0984 µM (active) in experiment [15]; 11.4 µM (inactive) in experiment [16]; 0.0748 µM (active) in experiment [17]; 0.441 µM (active) in experiment [18]. Besides, the GI50 in experiment [19] is 0.0149 µM (active).
`O=C(c1ccsc1)c1nccc2c1cnc1ccccc12`: the GI50 was > 100 µM (inactive) in [1]; 17 µM (inactive) in experiment [2]; 94.8 µM (inactive) in experiment [3]; > 100 µM (inactive) in experiment [4]; > 100 µM (inactive) in experiment [5]; > 100 µM (inactive) in [6]. In addition, the GI50 is 30.5 µM (inactive) in experiment [7]; 22.5 µM (inactive) in experiment [8]; 65.6 µM (inactive) in experiment [9]; > 100 µM (inactive) in experiment [10]; 49.8 µM (inactive) in experiment [11]; > 100 µM (inactive) in [12]. Moreover, the GI50 was > 100 µM (inactive) in [13]; 61 µM (inactive) in [14]; 45.5 µM (inactive) in [15]; 75 µM (inactive) in experiment [16]; 47.2 µM (inactive) in [17]; 0.286 µM (active) in [18]. The GI50 in experiment [19] is > 100 µM (inactive).
Take `NC(CC(=O)O)(Cc1ccccc1)C(=O)O` (centres undefined): the GI50 in experiment [1], in [2], in [3], in experiment [4], in [5] and in [6] was > 100 µM (inactive) throughout. The GI50 in [7], in [8], in experiment [9], in experiment [10], in experiment [11] and in experiment [12] was > 100 µM (inactive) each time. The GI50 in experiment [13], in [14], in [15], in [16], in experiment [17] and in experiment [18] was > 100 µM (inactive) each time. For the same molecule, in [19], the GI50 was > 100 µM (inactive).
Consider `COc1cc(C2c3cc4c(cc3OC(N3CCOCC3)C2C)OCO4)cc(OC)c1O` (centres undefined), for which the GI50 was 14.2 µM (inactive) in experiment [1]; 3.18 µM (inactive) in experiment [2]; 36.6 µM (inactive) in [3]; 7.43 µM (inactive) in experiment [4]; 3.84 µM (inactive) in experiment [5]; 3.14 µM (inactive) in [6]. Also, the GI50 in experiment [7] was 1.79 µM (inactive); in [8], 12.8 µM (inactive); in experiment [9] it was 3.73 µM (inactive); in [10], 5.66 µM (inactive); in experiment [11], 46.6 µM (inactive); in experiment [12], 6.19 µM (inactive). For the same molecule, the GI50 is 4.73 µM (inactive) in experiment [13]; 10.1 µM (inactive) in experiment [14]; 3.59 µM (inactive) in experiment [15]; 15.1 µM (inactive) in experiment [16]; 5.35 µM (inactive) in experiment [17]; 7.6 µM (inactive) in experiment [18]. In addition, the GI50 in experiment [19] was 12.9 µM (inactive).
With `COc1ccc2c(c1)C1=NCCN(CCN(C)C)c3ccc([N+](=O)[O-])c(c31)N2`, the GI50 was 0.526 µM (active) in [1]; 1.75 µM (inactive) in experiment [2]; 0.191 µM (active) in experiment [3]; 0.815 µM (active) in experiment [4]; 0.252 µM (active) in experiment [5]; 0.258 µM (active) in experiment [6]. For the same molecule, the GI50 in experiment [7] was 0.173 µM (active); in experiment [8], 0.603 µM (active); in experiment [9], 0.535 µM (active); in experiment [10], 0.432 µM (active); in [11], 1.59 µM (inactive); in [12], 0.411 µM (active). Further, the GI50 is 0.374 µM (active) in experiment [13]; 0.196 µM (active) in [14]; 0.35 µM (active) in experiment [15]; 1.59 µM (inactive) in experiment [16]; 0.365 µM (active) in [17]; 0.708 µM (active) in experiment [18]. Further, in experiment [19], the GI50 was 1.28 µM (inactive).
As to `COc1ccc(CCNC(=O)Cc2ccccc2CCO)cc1OC`, the GI50 in experiment [1] was > 100 µM (inactive); in [2], > 100 µM (inactive); in experiment [3] it was 41.8 µM (inactive); in [4], > 100 µM (inactive); in experiment [5], > 100 µM (inactive); in experiment [6], > 100 µM (inactive). Moreover, the GI50 in experiment [7], in experiment [8], in [9], in [10], in experiment [11] and in experiment [12] was > 100 µM (inactive) each time. The GI50 in experiment [13] was > 100 µM (inactive); in [14] it was 38.8 µM (inactive); in experiment [15] it was > 100 µM (inactive); in experiment [16], > 100 µM (inactive); in [17] it was > 100 µM (inactive); in [18], > 100 µM (inactive). Also, the GI50 in experiment [19] is 52.7 µM (inactive).
Take `Cc1cc2c(cc1C)OC(=O)CC2`: the GI50 in experiment [1], in experiment [2], in [3], in experiment [4], in [5] and in [6] was > 100 µM (inactive) each time. Further, the GI50 in experiment [7], in experiment [8], in experiment [9], in experiment [10], in experiment [11] and in [12] was > 100 µM (inactive) throughout. Also, the GI50 in [13], in [14], in experiment [15], in [16], in experiment [17] and in [18] was > 100 µM (inactive) in each case. For the same molecule, in experiment [19], the GI50 was > 100 µM (inactive).
As to `CC(=O)NNc1nc(C)c(C(/C=C/c2cccc([N+](=O)[O-])c2)=N/NC(=S)NN)s1`, the GI50 in [1], in experiment [2], in [3], in experiment [4], in experiment [5] and in [6] was > 100 µM (inactive) each time. For the same molecule, the GI50 in experiment [7], in experiment [8], in experiment [9], in experiment [10], in [11] and in experiment [12] was > 100 µM (inactive) in each case. Besides, the GI50 in experiment [13], in experiment [14], in experiment [15], in experiment [16], in experiment [17] and in experiment [18] was > 100 µM (inactive) each time. Further, the GI50 in experiment [19] is > 100 µM (inactive).
On to `O=C1CCCNn2c(nc3ncccc3c2=O)N1`, for which the GI50 in experiment [1], in [2], in [3], in [4], in [5] and in experiment [6] was > 100 µM (inactive) each time. In addition, the GI50 was 30.2 µM (inactive) in experiment [7]; > 100 µM (inactive) in experiment [8]; > 100 µM (inactive) in [9]; > 100 µM (inactive) in [10]; > 100 µM (inactive) in experiment [11]; > 100 µM (inactive) in [12]. For the same molecule, the GI50 in experiment [13] is 78.7 µM (inactive); in [14], > 100 µM (inactive); in experiment [15] it was > 100 µM (inactive); in [16], > 100 µM (inactive); in experiment [17], > 100 µM (inactive); in [18] it was > 100 µM (inactive).
In the case of `CC(C)=CCC[C@](C)(O[C@@H]1O[C@H](CO)[C@@H](O)[C@H](O)[C@H]1O)[C@H]1CC[C@]2(C)[C@@H]1[C@H](O)C[C@@H]1[C@@]3(C)CC[C@@H](O)C(C)(C)[C@@H]3[C@@H](O[C@@H]3O[C@H](CO)[C@@H](O)[C@H](O)[C@H]3O)C[C@]12C.C[C@@H]1O[C@@H](O[C@H]2[C@H](O[C@H]3C[C@]4(C)[C@H](C[C@H](O)[C@@H]5[C@@H]([C@@]6(C)CC[C@H](C(C)(C)O)O6)CC[C@]54C)[C@@]4(C)CC[C@H](O)C(C)(C)[C@H]34)O[C@H](CO)[C@@H](O)[C@@H]2O)[C@H](O)[C@H](O)[C@H]1O`, the GI50 in experiment [1], in experiment [2], in [3], in experiment [4], in experiment [5] and in experiment [6] was > 100 µM (inactive) each time. In addition, the GI50 in [7], in [8], in experiment [9], in experiment [10], in [11] and in experiment [12] was > 100 µM (inactive) throughout. Moreover, the GI50 in [13], in [14], in [15], in [16], in experiment [17] and in experiment [18] was > 100 µM (inactive) each time. Besides, the GI50 in experiment [19] is > 100 µM (inactive).
